Assay results reported in US10479997B2, “Compositions and methods for diagnosis and treatment of prostate cancer” (NOVARTIS AG, priority 2014, dated 2019).

Assays:
PRMT5 [1] = molecular target: PRMT5 (Homo sapiens, UniProt O14744); conditions: substrate E2-F-1; cited from earlier work
[2] = molecular target: T1, PRMT5/MEP50 enzyme complex (Homo sapiens, UniProt O14744); experiment: in vitro biochemical assay: PRMT5/MEP50 enzyme complex with SAM and purified AR LBD (with or without ERG ETS domain); conditions: AR LBD/PRMT5 and AR LBD/PRMT5/ETS reactions
T1 construct: purchased
T1 sequence (O14744 whole entry, the tested form may be a part): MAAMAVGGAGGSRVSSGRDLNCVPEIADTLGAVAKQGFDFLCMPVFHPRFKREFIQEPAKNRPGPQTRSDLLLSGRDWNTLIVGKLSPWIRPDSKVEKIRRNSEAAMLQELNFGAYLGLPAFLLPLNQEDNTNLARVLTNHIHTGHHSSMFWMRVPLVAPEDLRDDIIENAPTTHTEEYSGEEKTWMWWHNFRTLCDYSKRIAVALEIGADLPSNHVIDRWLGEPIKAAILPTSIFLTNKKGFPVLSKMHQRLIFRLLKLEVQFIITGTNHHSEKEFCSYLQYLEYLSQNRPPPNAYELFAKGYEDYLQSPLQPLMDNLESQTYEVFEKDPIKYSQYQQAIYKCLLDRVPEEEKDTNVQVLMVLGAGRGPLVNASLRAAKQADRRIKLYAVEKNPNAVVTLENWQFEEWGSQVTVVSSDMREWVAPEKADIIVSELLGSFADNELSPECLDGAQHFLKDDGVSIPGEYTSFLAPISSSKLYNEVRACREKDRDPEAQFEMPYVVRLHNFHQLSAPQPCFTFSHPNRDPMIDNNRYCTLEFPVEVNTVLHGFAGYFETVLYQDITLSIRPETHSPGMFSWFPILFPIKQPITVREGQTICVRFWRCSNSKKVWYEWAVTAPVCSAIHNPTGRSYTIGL
T1 sequence (Q9BQA1 whole entry partner, the tested form may be a part): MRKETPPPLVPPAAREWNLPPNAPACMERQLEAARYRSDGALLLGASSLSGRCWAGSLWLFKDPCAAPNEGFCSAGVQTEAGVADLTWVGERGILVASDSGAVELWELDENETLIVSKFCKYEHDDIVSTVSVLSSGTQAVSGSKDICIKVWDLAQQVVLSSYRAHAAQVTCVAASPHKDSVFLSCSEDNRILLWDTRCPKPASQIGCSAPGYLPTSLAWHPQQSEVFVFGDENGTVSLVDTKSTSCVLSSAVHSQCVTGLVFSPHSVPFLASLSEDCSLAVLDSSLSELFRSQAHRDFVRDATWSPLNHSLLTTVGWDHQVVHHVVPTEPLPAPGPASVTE
Procedure: To test whether ERG is a substrate of PRMT5, we used 22Rv1 cells to express and immunoprecipitate ERG in the presence and absence of PRMT5. Using a recently generated antibody specific for symmetric dimethyl arginine modification, we verified ERG arginine methylation levels and only observed a faint band which was not altered following PRMT5 knockdown (data not shown). To confirm these findings, we performed in vitro biochemical assays in which we incubated increasing amounts of commercial PRMT5/MEP50 enzyme complex with the methyl donor S-Adenosyl-Methionine (SAM) and either the pointed (PNT) domain or ETS domain of ERG as possible substrates of PRMT5. As a measure of PRMT5 catalytic activity and usage of the methyl donor SAM for substrate methylation, we evaluated and quantified by mass spectrometry the amount of S-Adenosyl-Homocysteine (SAH) produced (data not shown). […] To investigate whether the ligand binding domain (LBD) of AR is a direct substrate of PRMT5, we performed a series of in vitro biochemical assays in which we incubated the PRMT5/MEP50 enzyme complex with the methyl donor S-Adenosyl-Methionine (SAM) and purified AR LBD. […]

PRMT5 [3] = conditions: shRNAs disclosed in U.S. Patent Application No. 62/049,004; cited from earlier work

Sequence of PRMT5 (Homo sapiens, UniProt O14744) (O14744 whole entry, the tested form may be a part): as the sequence (O14744 whole entry, the tested form may be a part) above
Sequence of PRMT5 (Homo sapiens, UniProt O14744) (Q9BQA1 whole entry partner, the tested form may be a part): as the sequence (Q9BQA1 whole entry partner, the tested form may be a part) above

Compound	effectiveness of shRNA to PRMT5 (PRMT5 [3])	further results
Nc1ncnc2c1ncn2[C@@H]1O[C@H](C[C@@H](N)CC[C@H](N)C(=O)O)C(O)C1O (stereo in doubt) [Sinefungin, 5′-Deoxy-5′-(1,4-diamino-4-carboxybutyl)adenosine]	–	inhibition of PRMT5 activity (PRMT5 [1]): inhibits PRMT5 activity
O=C(Nc1ccc2c(O)cc(S(=O)(=O)O)cc2c1)Nc1ccc2c(O)cc(S(=O)(=O)O)cc2c1 [AMI-1]	–	AR mono-methylation levels ([2]; arginine mono-methyl antibody): completely blocked; SAH production ([2]; measured by mass spectrometry): completely blocked
sh4736: PRMT5 shRNA, target sequence GCGGATAAAGCTGTATGCTGT (SEQ ID NO: 11) (the letters are possibly those of the target site)	most effective	–
sh4737: PRMT5 shRNA, target sequence GCCAAGTGACCGTAGTCTCAT (SEQ ID NO: 15)	most effective	–
sh4738: PRMT5 shRNA, target sequence GCCATCCCAACAGAGATCCTA (SEQ ID NO: 8) (the letters are possibly those of the target site)	also effective	–
